Values quoted from earlier work in patent publication US20230066280A1, “DRUG ELUTING BIOMATERIALS” (UCL BUSINESS LTD, priority 2020, published 2023).

Key:
[1] = system: Rho; conditions: SY5YAPP, HEK 293 and PC12 cells (ref 30)

initial loaded drug released within 24 hours (ibuprofen from EVA, previous study (ref 24)) [%] | release rate of ibuprofen from MSN (mesoporous silica nanoparticles, previous studies (ref 20)) [%] | SMILES | levels of active Rho-GTP [1]
– | – | CSc1ccc(/C=C2/C(C)=C(CC(=O)O)c3cc(F)ccc32)cc1 [sulindac sulfide] | reduced
50 | 96.3 | CC(C)Cc1ccc(C(C)C(=O)O)cc1 (stereo not drawn) [ibuprofen] | –
